In patent US6737383B1, “Herbicidal oxadiazolidines” (priority 1999, dated 2004):

Legend:
wild oat = assay: Test B pre/postemergence wild oat; assay type: in vivo, Avena fatua
Outline: (§1)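 Herbicidal effect was estimated by eye on a ten-point control scale after plants spent twelve to sixteen days in a greenhouse following soil or foliar treatment. Foliar sprays targeted plants at one to four leaves; all doses were formulated in a non-phytotoxic solvent with surfactant.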

rice = assay: Test B flood test rice; assay type: in vivo, Oryza sativa; conditions: Pre-emergence
Outline: (§2)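 Read-out is a visual response score from 0 (no effect) to 10 (complete control), assigned by comparison with untreated controls. Treatment was applied at the 2-leaf stage, and plants stayed in the greenhouse for twelve to sixteen days before scoring.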

bedstraw = assay: Test B pre/postemergence bedstraw; assay type: in vivo, Galium aparine; conditions: Postemergence, Rate 250 g/ha; scale 0 to 10, 0 is no effect, 10 is complete control
Outline: as §1

corn = assay: Test B pre/postemergence corn; assay type: in vivo, Zea mays
Outline: as §1

wheat = assay: Test B pre/postemergence wheat; assay type: in vivo, Triticum aestivum
Outline: as §1

surinam grass = assay: Test B pre/postemergence surinam grass; assay type: in vivo, Brachiaria decumbens
Outline: as §1

bamyardgrass = assay: Test B flood test barnyardgrass; assay type: in vivo, Echinochloa crus-galli; conditions: Pre-emergence
Outline: as §2

sugar beet = assay: Test B pre/postemergence sugar beet; assay type: in vivo, Beta vulgaris
Outline: as §1

purple nutsedge = assay: Test B pre/postemergence purple nutsedge; assay type: in vivo, Cyperus rotundus
Outline: as §1

cocklebur = assay: Test B pre/postemergence cocklebur; assay type: in vivo, Xanthium strumarium
Outline: as §1

soybean = assay: Test B pre/postemergence soybean; assay type: in vivo, Glycine max
Outline: as §1

morningglory = assay: Test B pre/postemergence morningglory; assay type: in vivo, Ipomoea hederacea
Outline: as §1

pigweed = assay: Test B pre/postemergence pigweed; assay type: in vivo, Amaranthus retroflexus
Outline: as §1

crabgrass = assay: Test B pre/postemergence crabgrass; assay type: in vivo, Digitaria sanguinalis
Outline: as §1

blackgrass = assay: Test B pre/postemergence blackgrass; assay type: in vivo, Alopecurus myosuroides
Outline: as §1

giant foxtail = assay: Test B pre/postemergence giant foxtail; assay type: in vivo, Setaria faberii
Outline: as §1

rape = assay: Test B pre/postemergence rape; assay type: in vivo, Brassica napus
Outline: as §1

velvetleaf = assay: Test B pre/postemergence velvetleaf; assay type: in vivo, Abutilon theophrasti
Outline: as §1

smallflower flatsedge = assay: Test B flood test smallflower flatsedge; assay type: in vivo, Cyperus difformis; conditions: Pre-emergence
Outline: as §2

duck salad = assay: Test B flood test duck salad; assay type: in vivo, Heteranthera limosa; conditions: Pre-emergence
Outline: as §2

[1] = Postemergence, Rate 500 g/ha, scale of 0 to 10 where 0 is no effect and 10 is complete control
[2] = Preemergence, Rate 62 g/ha, scale 0 to 10 (0 no effect, 10 complete control)
[3] = Preemergence, Rate 125 g/ha, scale of 0 to 10 where 0 is no effect and 10 is complete control
[4] = Preemergence, Rate 250 g/ha, scale 0 to 10, 0 is no effect, 10 is complete control
[5] = Preemergence, Rate 500 g/ha, scale of 0 to 10 where 0 is no effect and 10 is complete control
[6] = Rate 62 g/ha, Postemergence, scale of 0 to 10 where 0 is no effect and 10 is complete control
[7] = Rate 62 g/ha, flood test species, visual evaluation after twelve to sixteen days
[8] = Rate 250 g/ha, flood-test species, scale 0 to 10, 0 is no effect, 10 is complete control
[9] = Rate 500 g/ha, flood test species, scale 0 to 10 (0 no effect, 10 complete control)
[10] = Postemergence, Rate 125 g/ha, scale 0 to 10, 0 is no effect, 10 is complete control
[11] = Postemergence, Rate 250 g/ha, scale 0 to 10, 0 is no effect, 10 is complete control
[12] = Preemergence, Rate 250 g/ha, scale of 0 to 10 where 0 is no effect and 10 is complete control

CC(C)Cn1c(=O)on(C(=O)N(c2ccc(F)cc2F)C(C)C)c1=O [Compound 394]
4: Plant response rating, Wild oats (wild oat; [2]) | Wheat plant response rating (wheat; [1]) | Sugarbeets plant response rating (sugar beet; [4]) | Cocklebur plant response rating (cocklebur; [1]) | Plant response rating, S. Flatsedge (0 to 10 scale, 0 is no effect, 10 is complete control) (smallflower flatsedge; [7])
Redroot pigwee 6: Redroot pigweed plant response rating (pigweed; [4])
9: Wheat plant response rating (wheat; [5]) | B. signalgrass plant response rating (surinam grass; [1]) | Crabgrass plant response rating (crabgrass; [1]) | Plant response rating, Crabgrass (crabgrass; [2]) | Plant response rating, Blackgrass (blackgrass; [11]) | Giant foxtail plant response rating (giant foxtail; [1]) | Plant response rating, Giant foxtail (giant foxtail; [2]) | Rape plant response rating (rape; [5])
1: Plant response rating, Rice (0 to 10 scale, 0 is no effect, 10 is complete control) (rice; [7]) | Rice plant response rating (rice; [8]) | Rice plant response rating (rice; [9]) | Plant response rating, Wheat (wheat; [3]) | Plant response rating, B. signalgrass (surinam grass; [10]) | Plant response rating, Sugarbeets (sugar beet; [11]) | Soybean plant response rating (soybean; [4]) | Plant response rating, Redroot pigweed (pigweed; [2]) | Plant response rating, Velvetleaf (velvetleaf; [2])
3: Corn plant response rating (corn; [4]) | Plant response rating, Sugarbeets (sugar beet; [3]) | Soybean plant response rating (soybean; [6]) | Velvetleaf plant response rating (velvetleaf; [1]) | Ducksalad plant response rating (duck salad; [8]) | Ducksalad plant response rating (duck salad; [9])
7: Sugarbeets plant response rating (sugar beet; [5]) | Morningglory plant response rating (morningglory; [1]) | Redroot pigweed plant response rating (pigweed; [1]) | Plant response rating, Blackgrass (blackgrass; [2]) | Plant response rating, Giant foxtail (giant foxtail; [10]) | Rape plant response rating (rape; [4]) | Velvetleaf plant response rating (velvetleaf; [4]) | Velvetleaf plant response rating (velvetleaf; [5])
5: Plant response rating, Bedstraw (bedstraw) | Corn plant response rating (corn; [5]) | Plant response rating, B. signalgrass (surinam grass; [3]) | Sugarbeets plant response rating (sugar beet; [1]) | Plant response rating, Soybean (soybean; [11]) | Soybean plant response rating (soybean; [1]) | Plant response rating, Velvetleaf (velvetleaf; [3])
6: Wild oats plant response rating (wild oat; [1]) | Plant response rating, Wild oats (wild oat; [3]) | Wheat plant response rating (wheat; [4]) | Barnyardgrass plant response rating (bamyardgrass; [8]) | Nutsedge plant response rating (purple nutsedge; [5]) | Plant response rating, Morningglory (morningglory; [11])
8: B. signalgrass plant response rating (surinam grass; [12]) | Barnyardgrass plant response rating (bamyardgrass; [9]) | Plant response rating, Crabgrass (crabgrass; [11]) | Plant response rating, Blackgrass (blackgrass; [3]) | Plant response rating, Giant foxtail (giant foxtail; [11]) | S. Flatsedge plant response rating (smallflower flatsedge; [8]) | S. Flatsedge plant response rating (smallflower flatsedge; [9])
10: Wild oats plant response rating (wild oat; [4]) | Wild oats plant response rating (wild oat; [5]) | B. signalgrass plant response rating (surinam grass; [5]) | Redroot pigweed plant response rating (pigweed; [5]) | Plant response rating, Crabgrass (crabgrass; [3]) | Crabgrass plant response rating (crabgrass; [4]) | Crabgrass plant response rating (crabgrass; [5]) | Blackgrass plant response rating (blackgrass; [12]) | Blackgrass plant response rating (blackgrass; [5]) | Plant response rating, Giant foxtail (giant foxtail; [3]) | Giant foxtail plant response rating (giant foxtail; [4]) | Giant foxtail plant response rating (giant foxtail; [5])
0: Wild oats plant response rating (wild oat; [6]) | Plant response rating, Corn (corn; [10]) | Plant response rating, Corn (corn; [11]) | Corn plant response rating (corn; [1]) | Plant response rating, Corn (corn; [2]) | Plant response rating, Corn (corn; [3]) | Corn plant response rating (corn; [6]) | Plant response rating, Wheat (wheat; [2]) | Wheat plant response rating (wheat; [6]) | B. signalgrass plant response rating (surinam grass; [6]) | Plant response rating, Barnyardgrass (0 to 10 scale, 0 is no effect, 10 is complete control) (bamyardgrass; [7]) | Plant response rating, Sugarbeets (sugar beet; [2]) | Sugarbeets plant response rating (sugar beet; [6]) | Plant response rating, Nutsedge (purple nutsedge; [11]) | Plant response rating, Nutsedge (purple nutsedge; [2]) | Plant response rating, Nutsedge (purple nutsedge; [3]) | Nutsedge plant response rating (purple nutsedge; [6]) | Plant response rating, Cocklebur (cocklebur; [10]) | Plant response rating, Cocklebur (cocklebur; [11]) | Plant response rating, Cocklebur (cocklebur; [2]) | Plant response rating, Cocklebur (cocklebur; [3]) | Cocklebur plant response rating (cocklebur; [4]) | Cocklebur plant response rating (cocklebur; [5]) | Cocklebur plant response rating (cocklebur; [6]) | Plant response rating, Soybean (soybean; [2]) | Plant response rating, Morningglory (morningglory; [2]) | Plant response rating, Morningglory (morningglory; [3]) | Morningglory plant response rating (morningglory; [4]) | Morningglory plant response rating (morningglory; [6]) | Redroot pigweed plant response rating (pigweed; [6]) | Plant response rating, Rape (rape; [11]) | Plant response rating, Rape (rape; [2]) | Rape plant response rating (rape; [6]) | Plant response rating, Velvetleaf (velvetleaf; [11]) | Velvetleaf plant response rating (velvetleaf; [6]) | Plant response rating, Ducksalad (0 to 10 scale, 0 is no effect, 10 is complete control) (duck salad; [7])
2: Plant response rating, B. signalgrass (surinam grass; [11]) | Plant response rating, B. signalgrass (surinam grass; [2]) | Nutsedge plant response rating (purple nutsedge; [4]) | Soybean plant response rating (soybean; [5]) | Morningglory plant response rating (morningglory; [5]) | Plant response rating, Redroot pigweed (pigweed; [11]) | Plant response rating, Redroot pigweed (pigweed; [3]) | Plant response rating, Crabgrass (crabgrass; [10]) | Crabgrass plant response rating (crabgrass; [6]) | Blackgrass plant response rating (blackgrass; [6]) | Plant response rating, Rape (rape; [3])
